# Test results from patent publication US7070960B2, “Method of increasing product expression through solute stress” (Chiron Corporation, priority 1987, dated 2006).
# Legend:
# hybridoma D-234 = test: Effect of NH4Cl on D-234 growth and IgM production; assay type: cell-based, human/human/murine trioma; settings: 10 mM NH4Cl
# Description: The hybridoma D-234 was grown in HL-1 serum-free medium supplemented with 0.1% Pluronic polyol F-68, 10 mM glutamine and 10 mM NH4Cl. A control was also run without NH4Cl. One hundred ml cultures in 250 ml shake flasks were inoculated at an initial density of 1×10^5 viable cells/ml (91% viability).
# D-234 = test: Effect of Na lactate on D-234 growth and IgM production; assay type: cell-based, human/human/murine trioma
# Description: Approximately 1×10^5 cells/ml of D-234 were grown in 250 ml shake flasks (agitated at 100 rpm) in HL-1 medium containing 0.1% Pluronic polyol F-68 and 8 mM glutamine. A 1 M stock solution of sodium lactate (pH 7.4) in HL-1 was added to the medium. A preliminary screen of the effect of a broad range of sodium lactate concentrations (0–100 mM) on D-234 growth and IgM production was run. […] Cell densities at day four were reduced at all levels of lactate tested with a critical drop between 40 and 60 mM.
# 454A12 hybridomas = test: Effect of sodium chloride on IgG production by hybridoma 454A12; assay type: cell-based, murine
# Description: In another experiment, the 454A12 hybridomas were grown in shake flasks with commercially available HL-1 medium (Ventrex) supplemented with 8 mM glutamine. Osmolality of the standard (control) HL-1 medium was 300 mOsmol/kg. In the test sample, the osmolality was increased to 400 mOsmol/kg using sodium chloride. The result of solute stress in the test sample was evidenced by a 50% decrease in maximum cell density. In the stressed condition, the specific IgG production rate per cell increased throughout the culture period The increase in specific productivity was greatest during the post exponential phase period of the culture when specific productivity was more than 60% higher under the stressed condition (FIG. 3).
structure (smiles),measurement,setting,value
"Cl.N [NH4Cl, ammonium chloride]",increase in the production of IgM,hybridoma D-234,2 fold
same,maximum total cell density,hybridoma D-234; control 2.3×10^6/ml,1.1e+06 mL⁻¹
"CC(O)C(=O)[O-].[Na+] (stereo not shown) [Na Lactate, sodium lactate]",Total Cell Density,"D-234; 20 mM initial lactate, Day 2, 0 mM 4.7",5.6 1 × 10^5/ml
same,% Viability,"D-234; 20 mM initial lactate, Day 2, 0 mM 95",96%
same,IgM,"D-234; 20 mM initial lactate, Day 4, 0 mM 10",20 µg/mL
same,Total Cell Density,"D-234; 20 mM initial lactate, Day 4, 0 mM 21.0",15.0 1 × 10^5/ml
same,% Viability,"D-234; 20 mM initial lactate, Day 4, 0 mM 90",92%
same,IgM,"D-234; 20 mM initial lactate, Day 7, 0 mM 24",35 µg/mL
same,% Viability,"D-234; 40 mM initial lactate, Day 2",92%
same,Total Cell Density,"D-234; 40 mM initial lactate, Day 2",5.1 1 × 10^5/ml
same,% Viability,"D-234; 40 mM initial lactate, Day 4",89%
same,IgM,"D-234; 40 mM initial lactate, Day 4",22 µg/mL
same,Total Cell Density,"D-234; 40 mM initial lactate, Day 4",12.9 1 × 10^5/ml
same,IgM,"D-234; 40 mM initial lactate, Day 7",54 µg/mL
same,% Viability,"D-234; 60 mM initial lactate, Day 2",93%
same,Total Cell Density,"D-234; 60 mM initial lactate, Day 2",2.2 1 × 10^5/ml
same,% Viability,"D-234; 60 mM initial lactate, Day 4",87%
same,IgM,"D-234; 60 mM initial lactate, Day 4",19 µg/mL
same,Total Cell Density,"D-234; 60 mM initial lactate, Day 4",4.1 1 × 10^5/ml
same,IgM,"D-234; 60 mM initial lactate, Day 7, control 24",61 µg/mL
same,cell density as % of the control,D-234; 80 mM added lactate,12%
same,% Viability,"D-234; 80 mM initial lactate, Day 2",81%
same,Total Cell Density,"D-234; 80 mM initial lactate, Day 2",2.1 1 × 10^5/ml
same,% Viability,"D-234; 80 mM initial lactate, Day 4",65%
same,IgM,"D-234; 80 mM initial lactate, Day 4",15 µg/mL
same,Total Cell Density,"D-234; 80 mM initial lactate, Day 4",2.6 1 × 10^5/ml
same,IgM,"D-234; 80 mM initial lactate, Day 7",28 µg/mL
same,% Viability,"D-234; 100 mM initial lactate, Day 2",72%
same,Total Cell Density,"D-234; 100 mM initial lactate, Day 2",2.2 1 × 10^5/ml
same,% Viability,"D-234; 100 mM initial lactate, Day 4",50%
same,IgM,"D-234; 100 mM initial lactate, Day 4",11 µg/mL
same,Total Cell Density,"D-234; 100 mM initial lactate, Day 4",2.0 1 × 10^5/ml
same,IgM,"D-234; 100 mM initial lactate, Day 7",14 µg/mL
same,increase in specific (per cell) productivity,D-234; at 60 mM added lactate,up to 14 fold
same,effect on growth,"D-234; levels of added lactate above 40 mM, screen 0–100 mM",greatly inhibited
[Cl-].[Na+] [sodium chloride],decrease in maximum cell density,454A12 hybridomas; 400 mOsmol/kg using sodium chloride versus 300 mOsmol/kg control,50%
same,increase in specific IgG productivity,"454A12 hybridomas; 400 mOsmol/kg using sodium chloride, post exponential phase period",more than 60%
